One may read the logP as the decadic logarithm of the partition coefficient of the neutral form, usually between octanol and water. Read a high logP as higher lipophilicity.

In the case of `CSC(C)=NOC(=O)N(C)SN(C)C(=O)C(C)C`, the logP was found to be 2.2. The compound `COc1c(N(C)C)cc(Cc2cnc(N)nc2N)cc1N(C)C(C)=O` registered a logP of 1.01.

In the case of `CCOC(=O)C(=Cc1cccc(F)c1)C(=O)OCC`, the logP is 3.19.

As for `CCCCCCCCCCCCCCCC[n+]1ccc(C)c(C)c1.[I-]`, the logP was found to be 3.16. With `CCc1nnc(SC)n(N)c1=O` the figure was 0.46; with `O=NN(CCCl)C(=O)NCCO`, 0.3. As for `COCN1C(=O)CN=C(c2ccccc2Cl)c2cc(Cl)ccc21`, the figure is 3.23.

For `O=C(Nc1ccccc1)NC(CO)(CO)CO`, the logP was found to be 0.43. As for `OC(CN1CCCC1)c1ccccc1` (configuration not stated), the figure is 1.38; as for `COc1cc(Cc2cnc(N)nc2N)cc(OC)c1C(=O)CS(C)(=O)=O`, -0.31; as for `CCCCNP(=O)(OC)SC` (configuration not stated), 0.94.

As to `CCCCCCNC(=O)CNC(=O)C=[N+]=[N-]`, the logP was found to be 1.51. In turn, `CCCCSC(C)(C)C(N)=O` showed a logP of 1.81. As for `Clc1cc(Cl)cc(-c2c(Cl)c(Cl)cc(Cl)c2Cl)c1`, the figure is 7.37. Compound `CCOC(=O)CCN1C(=O)C=CC1=O` returned a lipophilicity (logP) of 0.41. As for `CCOC(=O)c1c(OCC)cc(Cc2cnc(N)nc2N)cc1OCC`, the figure is 2.28. `CCOC(=O)C(=Cc1ccccc1OC)C(=O)OCC` registered a logP of 3.29. With `CCc1ccc(N=NN(C)C(C)=O)cc1` the figure was 3.36; with `CCCCCc1ccc(O)cc1`, 4.06. As for `COCN1C(=O)CN=C(c2ccccc2)c2cc(N)ccc21`, the figure is 1.32; as for `CN(C)c1ccc(C(N)=O)cc1`, 1.14; as for `CCOC(=O)c1cnc2cccc(C)n2c1=O`, 0.96. For `O=[N+]([O-])c1ccc(Oc2ccc(C(F)(F)F)cc2[N+](=O)[O-])cc1`, the logP was 3.65. On to `Nc1nc(N)nc(-c2ccc(Cl)cc2Cl)n1`, for which the logP was 2.07.

For the compound `CC1CN(C)C(=Nc2ncc([N+](=O)[O-])s2)N1` (configuration not stated), the logP was determined as 1.95. With `Cc1cc(C)cc(OC2OC(CO)C(O)C(O)C2O)c1` (configuration not stated) the figure was 0.26; with `NNC(=O)c1ccc(N)cc1`, -0.75; with `Cc1ccccc1-c1nc(N)nc(N)n1`, 1.26.

In turn, `COC(=O)C(C#N)=NNc1ccc(Cl)cc1C` gave a logP of 4.3.

`CCOC(=O)C(C#N)=NNc1cc(Cl)c(Cl)cc1Cl` yielded a log partition coefficient (logP) of 5.21. As for `OCC1OC(Oc2cccc(C(F)(F)F)c2)C(O)C(O)C1O` (configuration not stated), the figure is 0.49; as for `OCCCCn1nnc2ccccc21`, 1.03; as for `Cc1ccc(C(=N)c2ccc(C)cc2)cc1`, 3.71.

As to `c1ccc(O[Si]23OCCN(CCO2)CCO3)cc1`, the logP was -0.3.

On to `COc1cc(C)n(-c2cc(C)nc(C)n2)n1`, for which the logP worked out at 2.6.

Take `CSC1=NCCN1c1ncc([N+](=O)[O-])s1`: the logP is 1.78. With `COc1cc(-n2nc(C)cc2OC)nc(OC)n1` the figure was 1.86; with `CCC[n+]1cccc2ccccc21.[Br-]`, -2.52; with `CCCCCCCCCC[n+]1ccc(C)c(C)c1.[I-]`, 0.66.

For `O=C(Cn1ccnc1[N+](=O)[O-])N(CO)CO`, the logP is -1.59. With `COc1ccc(Cc2cnc(N)nc2N)cc1I` the figure was 2.09; with `O=NN(CCCl)C(=O)NC1CCC(=O)NC1=O` (configuration not stated), 0.37; with `O=[N+]([O-])C=Cc1cccc(O)c1`, 2.07.

Consider `CC1=C(C(=O)O)N2C(=O)C(NC(=O)Cc3cccs3)C2SC1` (configuration not stated), for which the logP is 0.61.

As for `CCC(C)NC(=O)C=Cc1ccc(Cl)cc1` (configuration not stated), the logP came out at 3.37.

As to `COc1ccc(C(c2ccc(OC)cc2)C(Cl)Cl)cc1`, the log partition coefficient (logP) was 4.47. As for `CC(C)(C)C(=O)NN1CC=CCC1`, the figure is 1.03; as for `CN(C)c1cccc(C(N)=O)c1`, 0.95. `O=C1CC(C(=O)O)Oc2ccc(Cl)cc21` (configuration not stated): the lipophilicity (logP) was found to be 1.77.

Take `C[N+](C)(C)Cc1cccc(O)c1.[Br-]`: the logP was -2.4.

The compound `CCC(=O)CC(=O)CC` had a logP of 1.12. As for `O=c1ccnc2ccccn12`, the figure is 0.2. In turn, `CCc1cccc(OC2OC(CO)C(O)C(O)C2O)c1` (configuration not stated) returned a logP of 0.31. With `O=[N+]([O-])c1nccnc1NCC(O)CO` (configuration not stated) the figure was -0.49.

The compound `CNC(=O)ON=Cc1ccc(Cl)cc1` gave a logP of 2.27. As for `COc1ccc(N2C(N)=NC(N)=NC2(C)C)cc1`, the figure is 0.4.

Regarding `O=S1(=O)NC(c2ccco2)=Nc2ccccc21`, the logP came out at 1.06.

For the compound `CC(=O)N(c1ccccc1)S(C)(=O)=O`, the log partition coefficient (logP) was determined as 0.29.

As for `NC1=NC(=O)C(=Cc2ccc([N+](=O)[O-])o2)S1`, the logP is 1.09. As for `CCC(C)c1nnc(N)o1` (configuration not stated), the figure is 0.62. The compound `C=CCS(=O)(=O)c1cc(OC)c(OC)c(OC)c1` came in with a log partition coefficient (logP) of 1.34. As for `CC12CC3CC(C1)CC(N)(C3)C2`, the figure is 3.01; as for `CCN1C(=O)SC(=Cc2ccc([N+](=O)[O-])o2)C1=O`, 2.29; as for `O=[N+]([O-])c1cc2nc(C(F)(F)F)[nH]c2cc1Cl`, 3.21. With `S=C=Nc1ccc(-c2ccc(N=C=S)cc2)cc1` the figure was 5.5; with `Clc1ccccc1-c1ccccc1Cl`, 4.97. As for `Cc1nnc(C)s1`, the figure is 0.03; as for `CNc1cc(Cc2cnc(N)nc2N)cc(N(C)C(C)=O)c1C`, 0.53. As for `CCOC(=O)CCCN1C(=O)C=CC1=O`, the logP came to 0.67. Compound `O=C(O)COc1ccc(C2CCCC2)cc1` returned a logP of 3.41.

For the compound `COc1cc(Cc2cnc(N)nc2N)cc(OC)n1`, the logP is 1.64.

In turn, `CON(C)C(=O)Nc1cccc(C(C)(C)C)c1` displayed a logP of 3.21. The compound `CN1CCN=C1Nc1ncc([N+](=O)[O-])s1` registered a logP of 1.8. With `COC(=O)C(C#N)=NNc1ccc(Cl)c(C(F)F)c1` the figure was 3.8. Consider `COc1ccccc1C1=NCC(=O)Nc2ccc(Cl)cc21`, for which the logP amounted to 2.63. As for `COc1cc(Cc2cnc(N)nc2N)cc(OC)c1OCc1ccccc1`, the figure is 2.46.

In the case of `O=S1(=O)NC(C(Cl)Cl)=Nc2cc(Cl)ccc21`, the logP is 1.81. With `CN(C)C(=O)Cc1cccs1` the figure was 0.65; with `Nc1cccc2nccnc12`, 1.29; with `O=C(c1ccccc1)c1ccc(N=C=S)cc1`, 4.88. With `CC(C)Oc1cn[nH]c1` the figure was 1.13.

In the case of `COc1c(OCc2ccccc2)cc(Cc2cnc(N)nc2N)cc1OCc1ccccc1`, the logP is 3.89.

Turning to `FC(F)(F)c1nc2c(Cl)cc(Cl)cc2[nH]1`, the logP was 3.49. As for `O=[N+]([O-])c1ccc(C=Cc2nccc(Cl)n2)o1`, the figure is 1.31; as for `Cc1ccnc2c(O)ccc(C)c12`, 2.71. As for `Cc1nnc(C=NO)s1`, the figure is 0.78. With `Clc1ccc(-c2ccc(Cl)cc2Cl)cc1` the figure was 5.62; with `CCCCCCCCCCCC[n+]1ccc(C)c(C)c1.[I-]`, 1.75; with `Clc1cc(Cl)c(Cl)c(-c2c(Cl)ccc(Cl)c2Cl)c1`, 7.15. `O=S(=O)(Nc1ccc(F)cc1F)C(F)(F)F` registered a logP of 3.06. `CC1(C)N=C(N)N=C(N)N1c1ccc(N)cc1`: the lipophilicity (logP) is -0.59. As for `COP(N)(=O)Oc1cc(Cl)c(Cl)cc1Cl` (configuration not stated), the figure is 2.53; as for `Cc1cccc(C)c1NC(=O)CN(C)C`, 0.94.

On to `CSc1nc2ccc(Cl)cc2[nH]1`, for which the logP was 3.22. `COC(=O)C(C#N)=NNc1ccc(Cl)cc1C(F)(F)F` had a logP of 4.66. As for `Cc1ccccc1NC(=O)CN1CCCCC1`, the figure is 2.26; as for `COc1cc(OC)c(OC)cc1CC(C)N` (configuration not stated), 1.74; as for `O=C1CCC(=O)N1c1cccc(Br)c1`, 1.09. As for `COc1cc(S(=O)(=O)CCC(C)C)cc(OC)c1OC`, the figure is 2.12. With `CCCCCCCC[n+]1ccccc1C.[I-]` the figure was -0.77.

Take `COc1cc(S(=O)(=O)CCN2CCCCC2)cc(OC)c1OC`: the log partition coefficient (logP) was 1.6. As for `CC1C(C)N(N=O)C(C)C(C)N1N=O` (configuration not stated), the figure is 0.91.

The compound `O=[N+]([O-])C=Cc1cccc(Cl)c1` yielded a logP of 2.57. With `COc1cc(OC)cc(OC(=O)CNC(=O)c2ccccc2)c1` the figure was 2.69; with `COc1cc(Cc2cnc(N)nc2N)cc(OC)c1OCC#N`, 0.72.

In the case of `C#CC(C=C)(CC)OC(N)=O` (configuration not stated), the logP was 1.09. For `COC(=O)C(C#N)=NNc1c(Cl)cc(C(F)(F)F)cc1Cl`, the logP amounted to 4.36.

For the compound `Cc1cccc2c([N+](=O)[O-])cc[n+]([O-])c12`, the logP worked out at 1.59. As for `O=[N+]([O-])c1cnc(NC2=NCCN2CCO)s1`, the figure is 1.23; as for `CC1CCN(N=O)CC1`, 1.05. With `CCCCCCC1OC(=O)c2ccccc21` (configuration not stated) the figure was 3.55; with `O=S1(=O)NC(C2CC3C=CC2C3)=Nc2ccccc21` (configuration not stated), 2.06. With `CN(C)Cc1cccs1` the figure was 1.67; with `CNC1=NC(=O)C(=Cc2ccc([N+](=O)[O-])o2)S1`, 1.16; with `CN(C)C(=O)c1ccsc1`, 0.55. In turn, `COC(=O)C(C#N)=NNc1cc(C(F)(F)F)ccc1Cl` returned a logP of 4.42. As to `O=C1CN=C(c2c(F)cccc2F)c2cc(Cl)ccc2N1`, the logP came out at 2.68. As for `Nc1nc(N)nc(-c2cc(Br)ccc2Cl)n1`, the figure is 2.04.

In turn, `O=C(c1ccncc1)c1ccc(Cl)cc1` had a logP of 2.61. As for `CCOP(=O)(OCC)Oc1ccc(SC)c(Cl)c1`, the figure is 2.94. As for `N#Cc1cc(OCC(=O)O)ccc1Cl`, the figure is 1.56. As for `CC(N)Cc1ccc2c(c1)OCO2` (configuration not stated), the figure is 1.64; as for `COC12C(COC(N)=O)C3=C(C(=O)C(C)=C(N)C3=O)N1CC1C2N1COC(=O)c1ccccc1` (configuration not stated), 1.26. For the compound `C#CCN(C)N=Nc1nc[nH]c1C(N)=O`, the logP stood at 0.33. As for `O=[N+]([O-])c1ccc(OCCn2ccnc2)cc1`, the figure is 1.69; as for `[N-]=[N+]=CC(=O)NCC(=O)NCCO`, -1.35; as for `COc1cc(-n2[nH]c(C)cc2=O)ncn1`, 0.99.

The record behind these values is the OPERA property sets (Mansouri et al. 2018).
